Measured values: US9814740B2, “Methods and compositions combining immunotherapy with monocyte activation” (Duke University, priority 2010, dated 2017)

Columns and labels:
[1] = test system: purified mouse spleen B cells; assay: Secreted IL-10 ELISA; assay type: cell-based; details: 25 μg/ml, 72 h
Description: Cytokine ELISA. Secreted IL-10 was quantified by ELISA. Purified B cells (4×10^5) were cultured in 0.2 ml of complete medium with TLR agoninsts (25 μg/ml) in a 96-well flat-bottom tissue culture plates. Culture supernatant fluid IL-10 concentrations were quantified using IL-10 OptEIA ELISA kits (BD PharMingen) bfollowing the manufacturer's protocols. All assays were carried out using triplicate samples.

purified spleen B cells = assay: B cell proliferation assay (CFSE); assay type: cell-based, mouse; details: 25 μg/ml, 72 h
Description: Proliferation assay. Splenic B cells were purified using CD19 mAb-coated microbeads (Miltenyi) and labeled with CFSE Vybrant™ CFDA SE fluorescent dye (5 μM; Invitrogen). Labeled B cells were then cultured in medium with LPS, CpG, or poly I:C (25 μg/ml) for 72 h and assessed by flow cytometry.

FcγRII/III = FcγRII/III expression by innate effector cells after TLR agonist treatment; assay type: in vivo, mouse; details: splenocytes 18 h after treatment
Description: FIG. 4 is a set of graphs showing that TLR agonists induce monocyte activation and enhance CD20 mAb-induced B cell depletion. […] Splenocytes were isolated from mice 18 h later and analyzed for FcγRII/III expression by immunofluorescence staining. For FIGS. 4A-B the results represent 2 independent experiments. […] B1b and B2 cells were distinguished based on their differential expression of CD11b. […] Representative peritoneal lymphocytes of CpG-treated MyD88^-/- or wild type mice following CD20 or control mAb (25 μg) treatment. Percentages (±SEM) represent mean B220^+ cell frequencies within the indicated gates 7 days after CD20 mAb treatment (≧3 mice per value) relative to control mAb-treated littermates (n=3). In FIG. 4C-E significant differences between sample means are indicated; *p<0.05, **p<0.01. Results represent 3-4 independent experiments. Immunofluorescence analysis. CD20 expression was visualized using biotin-conjugated mouse CD20 (MB20-11) mAb (Uchida et al., 2004b) plus phycoerythrin-Cy5 (PE-Cy5) streptavidin (eBioscience, San Diego, Calif.). Other mAbs included: B220 (RA3-6B2), CD1d (1B1), CD5 (53-7.3), CD19 (1D3), NK1.1 (PK136), and I-A/I-E (M5/114.15.2) from BD Biosciences (San Jose, Calif.). CD11b (M1/70), CD86 (GL1), F4/80 (BM8), IgM (II/41), Gr-1 (RB6-8C5), and IL-10 (JES5-16E3) mAbs were from eBioscience. TNF-α (MP6-XT22) mAb was from Biolegend (San Diego, Calif.). […]

peritoneal B cells = assay: Peritoneal B cell depletion by CD20 mAb with TLR agonists; assay type: in vivo, mouse; details: MyD88^−/− versus C57BL/6 mice
Source text: Immunofluorescence analysis. CD20 expression was visualized using biotin-conjugated mouse CD20 (MB20-11) mAb (Uchida et al., 2004b) plus phycoerythrin-Cy5 (PE-Cy5) streptavidin (eBioscience, San Diego, Calif.). Other mAbs included: B220 (RA3-6B2), CD1d (1B1), CD5 (53-7.3), CD19 (1D3), NK1.1 (PK136), and I-A/I-E (M5/114.15.2) from BD Biosciences (San Jose, Calif.). CD11b (M1/70), CD86 (GL1), F4/80 (BM8), IgM (II/41), Gr-1 (RB6-8C5), and IL-10 (JES5-16E3) mAbs were from eBioscience. TNF-α (MP6-XT22) mAb was from Biolegend (San Diego, Calif.). For immunofluorescence analysis, single cell suspensions (10^6 cells) were stained at 4° C. using predetermined optimal concentrations of mAb for 30 minutes as described (Sato et al., 1996). CD20 immunotherapy and TLR agonist treatments. Sterile mouse anti-mouse CD20 mAb (MB20-11, IgG2c) and unreactive mouse control IgG2a mAb were as described ([…]-Colin et al., 2008). In some experiments, mice were treated with anti-NK1.1 mAb ([…]) on day -4 and day 3 for N K cell depletion. Macrophage deficiency was generated by tail vein injections of clodronate-encapsulated liposomes (Sigma-Aldrich) or control PBS-encapsulated liposomes (Van Rooijen and Sanders, 1994) 0.2 ml given on day -1 and 0.1 ml given on days 2, 5, and 9 (FIG. 3B) or 0.2 ml given on days -2, 1, and 4 (FIG. 3C). […]

mouse spleen B cells = assay: B10pro cell maturation in vitro (mouse); assay type: cell-based; details: purified mouse spleen B cells, 48 h
Description: (§1) For IL-10 detection, mouse spleen or blood mononuclear cells, BL3750 tumor cells, or human blood were resuspended (2×10^6 cells/ml) in complete medium [RPMI 1640 media (Cellgro, Herndon, Va.) containing 10% FCS (Sigma, St. Louis, Mo.). […]. 4 mM L-Glutamine (all Cellgro), and 55 μM 2-mercaptoethanol (Invitrogen, Carlsbad. CA)] with lipopolysaccharide (LPS, 10 μg/ml, Escherichia coli serotype 0111: B4, Sigma), phorbol myristate acetate (PMA, 50 ng/ml; Sigma), ionomycin (500 ng/ml; Sigma), and monensin (2 μM; eBioscience) for 5 h. B10 progenitor cells were induced to mature and acquire IL-10 competence in vitro by culturing the cells with LPS (10 μg/ml), CpG (human ODN 2006, 10 μg/ml; Invivogen, San Diego, Calif., mouse ODN 1668, 10 μg/ml; Integrated DNA Technologies, Coralville, Iowa), or poly I:C (Invivogen) for 48 h with the addition of monensin, PMA and ionomycin for the last 5 h of culture. For TNF-α detection, bone marrow cells were resuspended (2×10^6 cells/ml) in complete medium with Brefeldin A (1 μl; Biolegend) and TLR agonists (25 μg/ml) for 4 h. Before cell surface staining, Fc receptors were blocked using Fc receptor mAb (2.4G2; BD Biosciences), and dead cells were labeled using a LIVE/DEAD® Fixable Green Dead Cell Stain Kit (Invitrogen-Molecular Probes). […]

[2] = test system: bone marrow CD11b+ monocytes; assay: TLR-induced TNF-α production by CD11b+ bone marrow cells; assay type: cell-based, mouse; details: TLR agonists 25 μg/ml, 4 h, Brefeldin A
Description: as §1

[3] = test system: human blood mononuclear cells; assay: B10pro cell maturation in vitro (human); assay type: cell-based; details: 48 h, CpG = human ODN 2006
Description: as §1

[4] = compared with parent poly I:poly C; cited from earlier work
BL3750 lymphoma cells = assay: BL3750 lymphoma model; assay type: in vivo, mouse
Description: Lymphoma model. BL3750 lymphoma cells were as described (Minard-Colin et al., 2008). This lymphoma model is accepted by those skilled in the art as a standard model for human lymphoma disease. For each experiment, tumor cells were thawed and expanded for 24-48 hours in complete medium (RPMI 1640 media containing 20% fetal bovine serum, 100 U/ml penicillin, 100 μg/ml streptomycin, 2 mM L-glutamine, and 55 μM 2-mercaptoethanol). BL3750 cells in 250 μl PBS were injected subcutaneously into the dorsal skin of recipient mice on day 0. This mouse model of lymphoma is a standard animal model for human lymphoma used and accepted by those skilled in the art. Mice were then given purified mAb in 250 μl of PBS intravenously, and starting on day 7 were monitored daily for tumor development and progression, and survival. Tumor measurements were as described (Minard-Colin et al., 2008).
CD20 immunotherapy and TLR agonist treatments. […] In some experiments, mice were treated with anti-NK1.1 mAb (100 g) on day −4 and day 3 for N K cell depletion. Macrophage deficiency was generated by tail vein injections of clodronate-encapsulated liposomes (Sigma-Aldrich) or control PBS-encapsulated liposomes (Van Rooijen and Sanders, 1994) 0.2 ml given on day −1 and 0.1 ml given on days 2, 5, and 9 (FIG. 3B) or 0.2 ml given on days −2, 1, and 4 (FIG. 3C).

macrophages = assay: In vitro assay of antibody-dependent phagocytosis; assay type: cell-based, mouse
Description: In vitro assay of antibody-dependent phagocytosis. Spleen B cells were purified by MACS B cell isolation (Miltenyi Biotech), labeled with CFSE Vybrant™ CFDA SE fluorescent dye (5 μM; Invitrogen) and cultured over night in complete medium. CFSE-labeled B cells were incubated with CD20 mAb (MB20-11) on ice for 1 h, and washed with complete medium to remove unbound mAb. Macrophages were isolated from the peritoneal cavity of thioglycolate-treated mice by lavage. Peritineal macrophages were further purified by adherence to plastic before culture with or without poly I:C (25 μg/ml) in complete medium at 37° C. in a 5% CO2 atmosphere for 18 h. Macrophages and B cells were mixed at a 1:1 ratio and cultured for 2.5 h. The cell mixture was then stained with PE-conjugated CD11b mAb with the percentage of CFSE^+CD11b^+ (double-positive cells) analyzed by flow cytometry.

[5] = 10^5 BL3750 cells day 0, control mAb plus TLR agonist on days 1, 7, 14 and 21

Substance	IL-10 secretion [1]	B cell proliferation (purified spleen B cells)	FcγRII/III expression by innate effector cells (FcγRII/III)	ability to enhance peritoneal B cell depletion by CD20 mAb (peritoneal B cells)	B10pro cell maturation into IL-10-competent B10 cells (mouse spleen B cells)	TNF-α production by monocytes [2]	B10pro cell maturation into IL-10-competent B10 cells [3]	toxicity [4]	reducing tumor growth in the mouse model (BL3750 lymphoma cells; compared with Poly (I:C))	phagocytic capacity of macrophages (macrophages; macrophages from TLR3^−/− or TRIF^−/− mice)	macrophage phagocytosis of CD20 mAb-coated B cells (macrophages; wild type macrophages, poly I:C 25 μg/ml 18 h, 1:1, 2.5 h)	effect on mouse survival (BL3750 lymphoma cells; [5])	median survival (BL3750 lymphoma cells; [5])
CpG: CpG ODN 1668 (5′tccATGACGTTCCTGAtgcT3′, bases in lower case are phosphorothioate); TLR9 agonist (DNA TCCATGACGTTCCTGATGCT; DNA, linkages s3 o13 s3 (s phosphorothioate, o phosphodiester), methylation of C not given here)	induced IL-10 secretion	proliferated significantly	higher levels of FcγRII/III expression	significantly reduced by MyD88-deficiency	induced significant numbers of B10pro cells to mature	induced significant TNF-α production	induced significant numbers of B10pro cells to mature	–	–	–	–	–	–
poly I:poly C12U [Ampligen]	–	–	–	–	–	–	–	lower toxicity	–	–	–	–	–
polyadenylic-polyuridylic acid [Poly (A:U)]	–	–	–	–	–	–	–	–	not as effective as Poly (I:C)	–	–	–	–
polyinosinic-polycytidylic acid [poly I:C]	without effect	did not proliferate	higher levels of FcγRII/III expression	–	without effect	induced significant TNF-α production	without effect	–	–	unable to augment	significantly enhanced	significant affect on mouse survival	33 days
